From patent publication US11957696B2 (Propella Therapeutics, Inc., priority 2021, dated 2024)

Key:
[1] = type: physicochemical
Description: The solids were filtered and analyzed by XRD to determine the resulting form(s). The solvents used in this study include: water, acetonitrile, isopropyl ether/acetonitrile (1:4), 2-butanol/water (1:1), 1-propanol/water (1:1), t-butanol/water (1:1), ethanol/water (1:1), THF/water (1:1), acetone/water (1:1), dioxane/water (1:1), 2-butanone/water (1:1), methanol, DMF/water (1:1), ethyl acetate/water (1:1), and heptane.
A competitive study was also carried out. […] Samples were stirred for 3 days and filtered.

[2] = IM injection of aqueous suspension and vegetable oil solution of abiraterone acetate; type: in vivo; settings: vegetable oil solution compared with aqueous suspension, rats
Description: Typically, the abiraterone prodrugs of the present disclosure are formulated as a non-aqueous solution or suspension. […] For example, as detailed herein, IM injections of an aqueous suspension and a vegetable oil solution of the abiraterone acetate prodrug were evaluated in rats. […] Accordingly, in some embodiments, the abiraterone prodrug formulations herein can include an abiraterone prodrug of the present disclosure (e.g., compound of Formula I or II) dissolved or dispersed in a pharmaceutically acceptable carrier. In some embodiments, the pharmaceutically acceptable carrier can be any suitable nonaqueous vehicle suitable for injection, such as those described in U.S. Pharmacopeia. In some embodiments, the pharmaceutically acceptable carrier can be a pharmaceutically acceptable oil, e.g., a vegetable oil, castor oil, corn oil, sesame oil, cottonseed oil, peanut oil, poppy seed oil, tea seed oil, or soybean oil. In some embodiments, the pharmaceutically acceptable oil can be oils (e.g., described herein), suitable for use as vehicles for injection, e.g., meeting the criteria as described in the corresponding U.S. Pharmacopeia monograph. In some embodiments, the pharmaceutically acceptable oil can be an oil of vegetable origin suitable for use as vehicles for injection. […]

Compound	thermodynamic stability of polymorph [1]	blood plasma levels and duration of exposure of abiraterone [2]
CCCCCCCCCC(=O)O[C@H]1CC[C@@]2(C)C(=CC[C@@H]3[C@@H]2CC[C@]2(C)C(c4cccnc4)=CC[C@@H]32)C1 [Form A, abiraterone decanoate]	thermodynamically stable form under ambient conditions	
CC(=O)O[C@H]1CC[C@@]2(C)C(=CC[C@@H]3[C@@H]2CC[C@]2(C)C(c4cccnc4)=CC[C@@H]32)C1 [abiraterone acetate, (3β)-17-(3-Pyridyl)androsta-5, acetate]		highest blood plasma levels and the longest duration of exposure
